ChEMBL document CHEMBL3991601, “The target landscape of clinical kinase drugs” (Science, 2017)
Activity calls are given as the source filed them. Rule as the data show it, for most assays here: actives have a measured Kd and inactives only a lower limit.

Assays:
[1] = target: Cyclin-dependent kinase 6 (Homo sapiens, UniProt Q00534)
[2] = target: DnaJ homolog subfamily A member 1 (Homo sapiens, UniProt P31689)
[3] = target: T1, Phenylalanine--tRNA ligase beta subunit (Homo sapiens, UniProt Q9NSD9)
T1 sequence (Q9NSD9 whole entry): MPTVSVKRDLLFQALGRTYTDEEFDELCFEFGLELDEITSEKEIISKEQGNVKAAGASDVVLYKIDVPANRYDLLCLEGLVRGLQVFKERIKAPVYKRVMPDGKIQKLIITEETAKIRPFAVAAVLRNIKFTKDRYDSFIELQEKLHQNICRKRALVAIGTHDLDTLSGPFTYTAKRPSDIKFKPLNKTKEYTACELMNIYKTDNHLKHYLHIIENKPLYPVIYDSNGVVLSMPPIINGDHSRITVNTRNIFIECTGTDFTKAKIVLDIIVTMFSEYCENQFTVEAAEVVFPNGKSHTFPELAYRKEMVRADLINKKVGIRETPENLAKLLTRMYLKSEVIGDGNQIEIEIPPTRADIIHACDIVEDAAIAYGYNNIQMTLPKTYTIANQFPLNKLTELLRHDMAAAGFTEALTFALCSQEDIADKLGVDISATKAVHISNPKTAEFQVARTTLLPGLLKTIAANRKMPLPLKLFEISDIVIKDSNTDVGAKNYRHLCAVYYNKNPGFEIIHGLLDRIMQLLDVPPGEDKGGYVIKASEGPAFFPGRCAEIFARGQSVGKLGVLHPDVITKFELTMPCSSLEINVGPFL

[4] = target: T2, AarF domain-containing protein kinase 1 (Homo sapiens, UniProt Q86TW2)
T2 sequence (Q86TW2 whole entry): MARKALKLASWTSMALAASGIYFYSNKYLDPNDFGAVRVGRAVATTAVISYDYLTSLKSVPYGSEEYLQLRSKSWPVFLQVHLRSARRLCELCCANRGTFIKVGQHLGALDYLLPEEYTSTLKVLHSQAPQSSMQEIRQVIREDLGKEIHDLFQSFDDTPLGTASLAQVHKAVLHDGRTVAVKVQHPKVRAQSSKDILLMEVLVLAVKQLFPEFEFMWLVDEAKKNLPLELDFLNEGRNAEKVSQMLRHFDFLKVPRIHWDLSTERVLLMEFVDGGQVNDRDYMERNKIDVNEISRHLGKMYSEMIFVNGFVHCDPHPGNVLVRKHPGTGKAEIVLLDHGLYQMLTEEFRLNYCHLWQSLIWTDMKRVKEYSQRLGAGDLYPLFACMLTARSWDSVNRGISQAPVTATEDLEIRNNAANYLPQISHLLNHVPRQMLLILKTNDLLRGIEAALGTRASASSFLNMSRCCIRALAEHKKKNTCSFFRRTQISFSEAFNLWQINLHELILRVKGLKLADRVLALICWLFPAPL

dCTP pyrophosphatase 1 = target: T3, dCTP pyrophosphatase 1 (Homo sapiens, UniProt Q9H773)
T3 sequence (Q9H773 whole entry): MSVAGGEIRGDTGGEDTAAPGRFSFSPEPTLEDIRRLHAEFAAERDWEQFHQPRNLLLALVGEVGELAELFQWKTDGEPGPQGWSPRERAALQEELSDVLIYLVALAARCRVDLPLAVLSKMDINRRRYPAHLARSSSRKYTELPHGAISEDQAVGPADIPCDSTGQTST

[5] = target: T4, Mitogen-activated protein kinase kinase kinase 3 (Homo sapiens, UniProt Q99759)
T4 sequence (Q99759 whole entry): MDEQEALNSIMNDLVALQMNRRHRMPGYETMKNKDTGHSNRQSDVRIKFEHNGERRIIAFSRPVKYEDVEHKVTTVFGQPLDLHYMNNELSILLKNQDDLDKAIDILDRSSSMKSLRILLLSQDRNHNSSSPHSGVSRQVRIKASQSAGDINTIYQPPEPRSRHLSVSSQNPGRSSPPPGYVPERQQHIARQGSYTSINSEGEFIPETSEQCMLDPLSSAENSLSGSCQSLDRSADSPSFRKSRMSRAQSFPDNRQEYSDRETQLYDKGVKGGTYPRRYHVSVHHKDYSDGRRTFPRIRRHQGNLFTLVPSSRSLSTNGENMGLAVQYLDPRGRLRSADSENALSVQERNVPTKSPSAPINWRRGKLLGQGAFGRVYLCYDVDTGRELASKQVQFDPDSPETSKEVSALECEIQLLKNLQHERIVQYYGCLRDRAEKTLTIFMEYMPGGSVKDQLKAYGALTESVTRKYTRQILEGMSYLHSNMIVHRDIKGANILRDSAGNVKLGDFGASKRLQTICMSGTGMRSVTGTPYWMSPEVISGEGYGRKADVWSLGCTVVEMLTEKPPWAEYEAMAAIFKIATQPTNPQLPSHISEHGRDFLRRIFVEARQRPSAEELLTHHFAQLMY

[6] = target: Cyclin-dependent kinase 4 (Homo sapiens, UniProt P11802)
[7] = target: Ribosomal protein S6 kinase alpha-1 (Homo sapiens, UniProt Q15418)
[8] = target: Protein kinase C delta type (Homo sapiens, UniProt Q05655)
[9] = target: T5, Serine/threonine-protein kinase 4 (Homo sapiens, UniProt Q13043)
T5 sequence (Q13043 whole entry): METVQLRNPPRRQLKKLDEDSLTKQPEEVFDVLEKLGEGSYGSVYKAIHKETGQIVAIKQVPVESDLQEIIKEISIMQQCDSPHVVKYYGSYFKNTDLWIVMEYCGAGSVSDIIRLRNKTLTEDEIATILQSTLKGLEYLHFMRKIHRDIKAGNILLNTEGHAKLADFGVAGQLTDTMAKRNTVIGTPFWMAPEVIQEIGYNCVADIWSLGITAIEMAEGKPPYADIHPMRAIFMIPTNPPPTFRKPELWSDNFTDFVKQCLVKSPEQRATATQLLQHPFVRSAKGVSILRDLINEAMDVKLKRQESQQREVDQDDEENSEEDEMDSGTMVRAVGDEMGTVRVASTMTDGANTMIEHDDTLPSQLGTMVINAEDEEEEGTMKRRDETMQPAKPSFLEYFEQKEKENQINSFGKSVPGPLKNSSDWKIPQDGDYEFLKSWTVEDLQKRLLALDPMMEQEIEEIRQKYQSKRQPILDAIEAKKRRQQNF

[10] = target: Glycogen synthase kinase-3 beta (Homo sapiens, UniProt P49841)
[11] = target: MAP kinase-activated protein kinase 2 (Homo sapiens, UniProt P49137)
[12] = target: Serine/threonine-protein kinase pim-1 (Homo sapiens, UniProt P11309)
Also: in the data inactive means no Kd found up to 30 µM.

Sequence of DnaJ homolog subfamily A member 1 (P31689 whole entry): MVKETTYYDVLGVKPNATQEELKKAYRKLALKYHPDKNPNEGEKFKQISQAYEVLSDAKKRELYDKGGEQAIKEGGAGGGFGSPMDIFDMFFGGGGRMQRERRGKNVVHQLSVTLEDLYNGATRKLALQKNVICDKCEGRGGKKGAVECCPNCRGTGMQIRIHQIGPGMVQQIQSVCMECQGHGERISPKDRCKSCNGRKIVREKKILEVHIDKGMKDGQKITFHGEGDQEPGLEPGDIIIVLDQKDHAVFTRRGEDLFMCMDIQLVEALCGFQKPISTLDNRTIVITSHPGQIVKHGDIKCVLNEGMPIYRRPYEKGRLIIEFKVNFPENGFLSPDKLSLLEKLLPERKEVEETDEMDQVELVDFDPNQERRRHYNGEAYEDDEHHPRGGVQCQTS
Sequence of Serine/threonine-protein kinase pim-1 (P11309 whole entry): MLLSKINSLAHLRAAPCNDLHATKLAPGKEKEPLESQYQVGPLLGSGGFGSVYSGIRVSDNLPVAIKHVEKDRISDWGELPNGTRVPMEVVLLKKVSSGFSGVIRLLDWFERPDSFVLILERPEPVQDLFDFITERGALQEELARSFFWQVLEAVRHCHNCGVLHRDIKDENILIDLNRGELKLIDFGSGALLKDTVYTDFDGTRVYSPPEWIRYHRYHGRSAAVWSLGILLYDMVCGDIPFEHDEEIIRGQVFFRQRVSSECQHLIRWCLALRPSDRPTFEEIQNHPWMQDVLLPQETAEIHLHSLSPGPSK
Sequence of Ribosomal protein S6 kinase alpha-1 (Q15418 whole entry): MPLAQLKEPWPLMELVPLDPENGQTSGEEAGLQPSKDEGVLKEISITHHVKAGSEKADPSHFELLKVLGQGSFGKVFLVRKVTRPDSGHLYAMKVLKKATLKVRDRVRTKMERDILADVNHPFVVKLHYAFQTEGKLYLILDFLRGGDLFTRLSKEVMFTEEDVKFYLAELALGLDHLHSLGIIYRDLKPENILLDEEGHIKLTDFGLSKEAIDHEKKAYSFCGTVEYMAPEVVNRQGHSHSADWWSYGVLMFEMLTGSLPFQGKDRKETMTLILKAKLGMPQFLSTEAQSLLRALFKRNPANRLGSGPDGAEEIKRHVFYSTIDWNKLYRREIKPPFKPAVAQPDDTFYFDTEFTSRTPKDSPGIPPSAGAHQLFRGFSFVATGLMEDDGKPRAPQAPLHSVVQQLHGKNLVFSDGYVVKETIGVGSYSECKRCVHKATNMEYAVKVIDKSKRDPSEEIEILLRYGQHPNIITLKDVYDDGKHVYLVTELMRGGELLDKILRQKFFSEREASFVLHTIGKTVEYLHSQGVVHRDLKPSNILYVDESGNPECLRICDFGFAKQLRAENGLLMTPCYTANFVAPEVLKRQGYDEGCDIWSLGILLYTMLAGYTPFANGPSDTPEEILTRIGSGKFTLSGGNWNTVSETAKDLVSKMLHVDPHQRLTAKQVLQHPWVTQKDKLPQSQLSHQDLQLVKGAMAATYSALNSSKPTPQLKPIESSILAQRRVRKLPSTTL
Sequence of Cyclin-dependent kinase 4 (P11802 whole entry): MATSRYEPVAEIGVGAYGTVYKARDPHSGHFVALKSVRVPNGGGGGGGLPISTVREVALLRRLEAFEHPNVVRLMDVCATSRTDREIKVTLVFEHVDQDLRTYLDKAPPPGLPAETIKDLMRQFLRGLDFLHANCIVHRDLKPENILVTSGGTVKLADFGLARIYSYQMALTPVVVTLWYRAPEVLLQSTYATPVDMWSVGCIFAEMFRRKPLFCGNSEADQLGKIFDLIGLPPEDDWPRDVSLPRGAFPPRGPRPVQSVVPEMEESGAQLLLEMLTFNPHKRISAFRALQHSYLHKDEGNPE
Sequence of Protein kinase C delta type (Q05655 whole entry): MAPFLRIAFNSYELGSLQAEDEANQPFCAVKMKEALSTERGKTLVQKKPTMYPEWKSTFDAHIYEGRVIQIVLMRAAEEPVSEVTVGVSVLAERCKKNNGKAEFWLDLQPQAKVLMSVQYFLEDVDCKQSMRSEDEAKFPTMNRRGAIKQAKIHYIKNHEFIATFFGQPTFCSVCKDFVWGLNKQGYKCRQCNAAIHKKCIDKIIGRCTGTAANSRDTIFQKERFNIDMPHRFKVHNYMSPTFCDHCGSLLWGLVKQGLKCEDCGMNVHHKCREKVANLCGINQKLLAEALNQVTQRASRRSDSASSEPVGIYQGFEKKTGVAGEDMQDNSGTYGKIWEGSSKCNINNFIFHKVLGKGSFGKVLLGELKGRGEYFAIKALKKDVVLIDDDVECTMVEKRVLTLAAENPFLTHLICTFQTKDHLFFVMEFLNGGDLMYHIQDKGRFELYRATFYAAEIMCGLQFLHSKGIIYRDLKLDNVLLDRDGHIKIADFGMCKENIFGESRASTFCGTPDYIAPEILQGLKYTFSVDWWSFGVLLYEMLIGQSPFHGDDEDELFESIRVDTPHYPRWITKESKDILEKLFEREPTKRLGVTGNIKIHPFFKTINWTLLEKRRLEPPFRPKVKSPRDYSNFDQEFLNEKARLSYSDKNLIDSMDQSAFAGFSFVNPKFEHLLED
Sequence of Cyclin-dependent kinase 6 (Q00534 whole entry): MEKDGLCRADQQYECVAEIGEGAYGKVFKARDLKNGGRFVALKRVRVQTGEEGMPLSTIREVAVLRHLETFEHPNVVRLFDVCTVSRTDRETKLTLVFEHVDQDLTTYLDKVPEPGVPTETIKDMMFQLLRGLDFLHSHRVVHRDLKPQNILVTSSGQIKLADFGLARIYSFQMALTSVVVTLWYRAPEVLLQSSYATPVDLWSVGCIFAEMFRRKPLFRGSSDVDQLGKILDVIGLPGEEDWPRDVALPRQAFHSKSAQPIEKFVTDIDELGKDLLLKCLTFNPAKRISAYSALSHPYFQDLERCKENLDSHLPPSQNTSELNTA
Sequence of Glycogen synthase kinase-3 beta (P49841 whole entry): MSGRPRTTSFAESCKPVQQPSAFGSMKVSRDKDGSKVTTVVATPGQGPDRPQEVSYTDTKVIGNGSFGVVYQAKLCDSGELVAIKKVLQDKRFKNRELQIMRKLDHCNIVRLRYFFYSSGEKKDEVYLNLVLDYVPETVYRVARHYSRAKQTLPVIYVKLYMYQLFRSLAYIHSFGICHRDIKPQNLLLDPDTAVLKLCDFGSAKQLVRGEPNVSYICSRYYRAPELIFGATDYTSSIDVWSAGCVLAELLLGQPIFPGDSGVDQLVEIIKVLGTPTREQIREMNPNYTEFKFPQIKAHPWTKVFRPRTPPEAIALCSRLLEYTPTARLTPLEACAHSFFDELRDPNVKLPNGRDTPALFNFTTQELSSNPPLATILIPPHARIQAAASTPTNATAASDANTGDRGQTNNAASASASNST
Sequence of MAP kinase-activated protein kinase 2 (P49137 whole entry): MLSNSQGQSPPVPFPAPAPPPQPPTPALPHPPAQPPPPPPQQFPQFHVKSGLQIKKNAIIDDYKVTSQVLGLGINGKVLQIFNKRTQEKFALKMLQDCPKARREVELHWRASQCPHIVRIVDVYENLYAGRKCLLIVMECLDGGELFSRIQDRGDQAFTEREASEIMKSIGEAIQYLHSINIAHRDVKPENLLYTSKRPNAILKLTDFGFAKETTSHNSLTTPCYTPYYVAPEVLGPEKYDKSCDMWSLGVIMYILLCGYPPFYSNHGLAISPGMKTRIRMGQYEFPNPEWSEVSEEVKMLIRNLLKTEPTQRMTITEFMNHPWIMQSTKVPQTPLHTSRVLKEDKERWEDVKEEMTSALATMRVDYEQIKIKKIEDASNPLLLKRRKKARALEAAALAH

| Kd [1] | Kd [2] | Kd [3] | Kd [4] | Kd (dCTP pyrophosphatase 1) | Kd [5] | Kd [6] | Kd [7] | Kd [8] | Kd [9] | Kd [10] | Kd [11] | Kd [12] | Compound |
| --- | --- | --- | --- | --- | --- | --- | --- | --- | --- | --- | --- | --- | --- |
| > 30 µM (inactive) | > 30 µM (inactive) | > 30 µM (inactive) | > 30 µM (inactive) | > 30 µM (inactive) | > 30 µM (inactive) | > 30 µM (inactive) | > 30 µM (inactive) | > 30 µM (inactive) | > 30 µM (inactive) | > 30 µM (inactive) | > 30 µM (inactive) |  | CN1N=C(N)c2cn([C@@H]3O[C@H](COP(=O)(O)O)[C@@H](O)[C@H]3O)c3ncnc1c23 [TRICIRIBINE PHOSPHATE] |
| > 30 µM (inactive) | > 30 µM (inactive) | > 30 µM (inactive) | > 30 µM (inactive) | > 30 µM (inactive) | > 30 µM (inactive) | > 30 µM (inactive) | > 30 µM (inactive) | > 30 µM (inactive) | > 30 µM (inactive) |  | > 30 µM (inactive) |  | OCCn1cc(-c2cnc3nnn(Cc4ccc5ncccc5c4)c3n2)cn1 [PF-04217903] |
| > 30 µM (inactive) | > 30 µM (inactive) | > 30 µM (inactive) | > 30 µM (inactive) | > 30 µM (inactive) | > 30 µM (inactive) | > 30 µM (inactive) | > 30 µM (inactive) | > 30 µM (inactive) | > 30 µM (inactive) |  | > 30 µM (inactive) | > 30 µM (inactive) | O=c1sn(-c2cccc3ccccc23)c(=O)n1Cc1ccccc1 [TIDEGLUSIB] |
| 2.83 µM (active) | > 30 µM (inactive) | > 30 µM (inactive) | > 30 µM (inactive) | > 30 µM (inactive) |  |  |  |  |  |  |  |  | CN1CCN(c2ccc3nc(-c4c(N)c5c(F)cccc5[nH]c4=O)[nH]c3c2)CC1 [DOVITINIB] |
| > 30 µM (inactive) | > 30 µM (inactive) | > 30 µM (inactive) | > 30 µM (inactive) | > 30 µM (inactive) | > 30 µM (inactive) | > 30 µM (inactive) | > 30 µM (inactive) |  |  |  |  |  | Cc1cc(Nc2cc(N3CCN(C)CC3)nc(/C=C/c3ccccc3)n2)n[nH]1 [ENMD-2076] |
| > 30 µM (inactive) | > 30 µM (inactive) | > 30 µM (inactive) | > 30 µM (inactive) | > 30 µM (inactive) |  |  |  |  |  |  |  |  | Nc1nc(N)c2nc(-c3cccc(O)c3)c(-c3cccc(O)c3)nc2n1 [TG100-115] |
| > 30 µM (inactive) | > 30 µM (inactive) | > 30 µM (inactive) | > 30 µM (inactive) | > 30 µM (inactive) | > 30 µM (inactive) | > 30 µM (inactive) | > 30 µM (inactive) | > 30 µM (inactive) | > 30 µM (inactive) |  | > 30 µM (inactive) | > 30 µM (inactive) | Cn1cc(-c2ccc(F)c(C(F)(F)F)c2)nc1C1CCN(c2ncnc3[nH]ncc23)CC1 [LY-2584702] |
| > 30 µM (inactive) | > 30 µM (inactive) | > 30 µM (inactive) | > 30 µM (inactive) | 0.573 µM (active) |  |  |  |  |  |  |  |  | CCn1c(-c2nonc2N)nc2c(C#CC(C)(C)O)ncc(OC[C@H]3CCCNC3)c21 [GSK-690693] |
| > 30 µM (inactive) | > 30 µM (inactive) | > 30 µM (inactive) | > 30 µM (inactive) | > 30 µM (inactive) | > 30 µM (inactive) | > 30 µM (inactive) | > 30 µM (inactive) | > 30 µM (inactive) | > 30 µM (inactive) | > 30 µM (inactive) | > 30 µM (inactive) |  | CN1CCC(CNc2ccc3ncc(-c4cccc(OC(F)(F)F)c4)n3n2)CC1 [SGI-1776] |

More lines, now with the values behind:

| Compound | Kd [1] | Kd [2] | Kd [3] | Kd [4] | Kd (dCTP pyrophosphatase 1) | Kd [5] | Kd [6] | Kd [7] | Kd [8] | Kd [9] | Kd [10] | Kd [11] | Kd [12] |
| --- | --- | --- | --- | --- | --- | --- | --- | --- | --- | --- | --- | --- | --- |
| Cc1cn(-c2cc(NC(=O)c3ccc(C)c(Nc4nccc(-c5cccnc5)n4)c3)cc(C(F)(F)F)c2)cn1 [NILOTINIB] | > 30 µM (inactive) | > 30 µM (inactive) | > 30 µM (inactive) | > 30 µM (inactive) | > 30 µM (inactive) |  |  |  |  |  |  |  |  |
| CCc1cnn2c(NCc3ccc[n+]([O-])c3)cc(N3CCCC[C@H]3CCO)nc12 [DINACICLIB] |  | > 30 µM (inactive) | > 30 µM (inactive) | > 30 µM (inactive) | > 30 µM (inactive) | > 30 µM (inactive) |  | > 30 µM (inactive) | > 30 µM (inactive) | > 30 µM (inactive) | 1.43 µM (active) | > 30 µM (inactive) |  |
| O=C(Nc1cccc(Cl)c1)Nc1ncc(CCNc2ncnc3ccsc23)s1 [SNS-314] | > 30 µM (inactive) | > 30 µM (inactive) | > 30 µM (inactive) | > 30 µM (inactive) | > 30 µM (inactive) | > 30 µM (inactive) | > 30 µM (inactive) | > 30 µM (inactive) |  | > 30 µM (inactive) |  |  |  |
| CNC(=O)c1ccc(-c2cnc3ncc(Cc4ccc5ncccc5c4)n3n2)cc1F [CAPMATINIB] | > 30 µM (inactive) | > 30 µM (inactive) | > 30 µM (inactive) | > 30 µM (inactive) | > 30 µM (inactive) | > 30 µM (inactive) | > 30 µM (inactive) | > 30 µM (inactive) | > 30 µM (inactive) | > 30 µM (inactive) |  | > 30 µM (inactive) | > 30 µM (inactive) |
| Cc1nc(N)sc1-c1ccnc(Nc2ccc(N3CCOCC3)cc2)n1 [CYC-116] | 1.72 µM (active) | > 30 µM (inactive) | > 30 µM (inactive) | 0.545 µM (active) | > 30 µM (inactive) | > 30 µM (inactive) |  | > 30 µM (inactive) |  |  |  |  |  |
| N[C@@H]1CCCN(c2c(/C=C3\SC(=O)NC3=O)cccc2-c2ccccc2)C1 |  | > 30 µM (inactive) | > 30 µM (inactive) | > 30 µM (inactive) | > 30 µM (inactive) | > 30 µM (inactive) | > 30 µM (inactive) | > 30 µM (inactive) | > 30 µM (inactive) | > 30 µM (inactive) | > 30 µM (inactive) | > 30 µM (inactive) |  |
